34 molecules from article PMC11551755, “Structure-based discovery of first inhibitors targeting the helicase activity of human PIF1” (Nucleic Acids Research, 2024) can be followed below.

The target of assay [1] is T1, FLhPIF1 (full length human PIF1) (Homo sapiens, UniProt Q9H611).
T1 construct: Full length human PIF1 (FLhPIF1) was expressed and purified as a His-SUMO fusion; His-SUMO (cleaved yes); made in house; 'following similar protocols' to hPIF1HD (ArcticExpress BL21(DE3) E. coli)
T1 sequence (Q9H611 1-641): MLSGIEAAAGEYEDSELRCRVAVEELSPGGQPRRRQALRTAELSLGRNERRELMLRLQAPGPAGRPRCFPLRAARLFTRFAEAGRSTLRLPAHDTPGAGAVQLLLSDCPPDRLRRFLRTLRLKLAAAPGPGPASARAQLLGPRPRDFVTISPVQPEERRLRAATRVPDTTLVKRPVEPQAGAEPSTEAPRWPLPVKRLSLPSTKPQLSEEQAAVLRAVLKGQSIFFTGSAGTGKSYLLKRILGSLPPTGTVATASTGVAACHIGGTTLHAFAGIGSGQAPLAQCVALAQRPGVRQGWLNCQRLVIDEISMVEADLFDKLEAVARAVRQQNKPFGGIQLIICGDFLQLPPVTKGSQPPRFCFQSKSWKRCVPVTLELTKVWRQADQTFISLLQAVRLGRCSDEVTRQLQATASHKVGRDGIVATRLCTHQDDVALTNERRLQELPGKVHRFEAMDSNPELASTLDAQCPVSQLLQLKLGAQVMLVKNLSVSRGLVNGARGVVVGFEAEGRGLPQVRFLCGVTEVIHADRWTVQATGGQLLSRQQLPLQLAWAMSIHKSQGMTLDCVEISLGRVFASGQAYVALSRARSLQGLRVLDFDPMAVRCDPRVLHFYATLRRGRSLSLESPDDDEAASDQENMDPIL
Description: radiometric strand displacement helicase assay, no pre-incubation. The class given is biochemical. The settings on record: for inhibition at 1000 µM: 1 mM single point, gel-based DNA unwinding assay, four repeats (S4 n=3); for IC50: n = 3. The protocol:
Helicase activity was assayed using a radiometric strand displacement assay employing a partially single- and double-stranded substrate generated by annealing two oligonucleotides: 5′-(T)55-[…] and 5′-[…], as described previously ([19],[28]). […] SMIs (100 mM stocks in DMSO) were assayed at up to 2 mM without pre-incubation with FLhPIF1, unless otherwise stated. […] Dried gels were exposed to phosphorimaging plates (Fujifilm) for imaging and quantification (Fuji FLA3000, image gauge V3.3 software). IC50 values were analysed by non-linear regression (variable slope) using GraphPad Prism.

The target in assay [2] is T2, FLhPIF1 (Homo sapiens, UniProt Q9H611).
T2 construct: Full length human PIF1 (FLhPIF1) was expressed and purified as a His-SUMO fusion; His-SUMO (cleaved yes); made in house; 'following similar protocols' to hPIF1HD (ArcticExpress BL21(DE3) E. coli)
T2 sequence (Q9H611 1-641): T1 sequence (Q9H611 1-641)
Description: helicase assay after pre-incubation of SMI with FLhPIF1. The class given is biochemical. The method, then: Helicase activity was assayed using a radiometric strand displacement assay employing a partially single- and double-stranded substrate generated by annealing two oligonucleotides: 5′-(T)55-[…] and 5′-[…], as described previously ([19],[28]). The reaction buffer was 20 mM HEPES–NaOH pH 7.5, 20 mM NaCl, 5.5 mM MgCl2, 5 mM ATP, 1 mM DTT and 0.1 mg/ml BSA. SMIs (100 mM stocks in DMSO) were assayed at up to 2 mM without pre-incubation with FLhPIF1, unless otherwise stated. Reactions (0.1 nM substrate) were incubated at 37°C for 20 min, followed by addition of 0.2 volumes of 120 mM EDTA, 0.6% (w/v) SDS, 60% (v/v) glycerol and 0.1% (w/v) bromophenol blue before resolution of products by polyacrylamide gel electrophoresis (8%, 19:1 acrylamide:bis-acrylamide), 1× TBE (90 mM Tris–borate/2 mM EDTA, pH 8.3 with 0.05% (w/v) SDS buffer). Dried gels were exposed to phosphorimaging plates (Fujifilm) for imaging and quantification (Fuji FLA3000, image gauge V3.3 software). IC50 values were analysed by non-linear regression (variable slope) using GraphPad Prism.
First, we screened inhibitory activity of the SMIs listed in Table 1, following incubation of 100 nM FLhPIF1 with 100 μM SMI for 1 h at 22°C in the absence of substrates (ATP and DNA), before a 1:10 dilution into helicase reactions. […] Next, compounds 2, 5, 6 and 11, along with 4 and 1D were selected for analysis in a pre-incubation time-course (100 nM FLhPIF1, 100 μM SMI), up to 3 h before assaying helicase activity.
In parallel, IC50 values for inhibition of human UPF1 (hUPF1) helicase activity by the SMIs were also determined under the same conditions. UPF1-like SF1B helicases are the most closely related family of helicases to PIF1, with significant structural and mechanistic similarity ([52]).
Figure 6. SMI IC50 for dsDNA unwinding determined following pre-incubation. SMIs (0.0078–2 mM SMI) were incubated for 2 h at 22°C (100 nM FLhPIF1 or hUPF1) before dilution (1:10) in the standard helicase assay (0.1 nM DNA substrate). For 1D and 6, structures, electrophoresis of FLhPIF1 reaction product and graphs for IC50 value determination are shown. The graphed data include the activity of SMIs towards hUPF1 and IC50 values obtained are given. See Supplementary Figure S14 for the complete data set. TEXT PRINTED IN THE PICTURE: 1D: IC50 (μM): PIF1: 978 ± 221; IC50 (μM): UPF1: N.D. | 6: IC50 (μM): PIF1: 79.4 ± 16; IC50 (μM): UPF1: 1750 ± 426

[3] abbreviates: 0.0078–2 mM compound, 10 nM FLhPIF1, 0.1 nM DNA substrate, no pre-incubation, read-out: IC50 for inhibition of FLhPIF1 helicase activity.

Values joined by “and” are separate entries in the source; they are usually repeats but may differ in a detail not shown here. Identical values can stand only once. Like-named read-outs stand apart in the source and are kept apart here.

As to `CC(=O)Nc1ccc(-c2csc(N)n2)cc1` [Compound 1E], in assay [1] (0.0078-2 mM, no pre-incubation), the “helicase inhibitory activity compared to commercial batches 1A–1C” value is listed as “significantly lower inhibitory activities”.
One may read the inhibition as the relative decrease from the control value, in per cent. Usually IC50 stands for the concentration that inhibits the measured activity by half. Turning to `CC(=O)Nc1ccc(-c2csc(N)n2)cc1` [Compound 1F], the inhibition at 1000 µM in assay [1] was 14.2 ± 7%. In addition, the half-maximal inhibitory concentration (IC50) in assay [1] (setting [3]) is ~1160 µM and 1160 µM; in assay [1] (no pre-incubation, value with large error, read-out: IC50 against FLhPIF1 helicase) it was about 1200 µM.
For `Nc1nc(-c2ccc([N+](=O)[O-])cc2)cs1` [Compound 3], the inhibition at 1000 µM in assay [1] turned out to be 85.6 ± 5.1%. The IC50 in assay [1] (setting [3]) amounted to 184 ± 13 µM.
Consider `COC(=O)c1ccc(-c2csc(N)n2)cc1` [Compound 4], for which, in assay [1], the inhibition at 1000 µM came to 72.4 ± 4.5%. The IC50 in assay [1] (setting [3]) came to 78 ± 4 µM; in assay [2] (2 h pre-incubation at 22°C with 100 nM FLhPIF1, then 1:10 dilution into helicase assay, read-out: IC50 for dsDNA unwinding by FLhPIF1 following pre-incubation), 300 ± 66 µM. Besides, the “increase in inhibition of FLhPIF1 DNA unwinding after pre-incubation” value in assay [2] (3 h pre-incubation, 100 nM FLhPIF1, 100 μM SMI) is given as 5–10%.
Take `CC(=O)Nc1ccc(-c2csc(NC(C)=O)n2)cc1` [Compound 7]: in assay [1] (1 mM single point helicase screen), the “fold increase in inhibition at 1 mM relative to compound 1” value is listed as 4 fold. The inhibition at 1000 µM in assay [1] was found to be 57 ± 14.7%. Besides, the IC50 in assay [1] (setting [3]) is 569 ± 139 µM.
As for `CNCCNc1cc(-c2csc(N)n2)ccc1[N+](=O)[O-]` [Compound 8], the inhibition at 1000 µM in assay [1] was 77.8 ± 7.9%. In assay [1] (setting [3]), the IC50 was determined as 176 ± 6 µM.
With `CC(=O)Nc1ccc(-c2csc(N)n2)cc1N1CCNCC1` [Compound 9], the inhibition at 1000 µM in assay [1] was 69.1 ± 5.5%. In addition, in assay [1] (setting [3]), the IC50 was determined as 307 ± 16 µM.
`CC(=O)Nc1ccc(-c2csc(C)n2)cc1` [S2]: in assay [1], the “inhibition of FLhPIF1 helicase activity in 1 mM single-point screen” value (“inhibition of FLhPIF1 helicase activity” below) was “only minimal activity” and the inhibition at 1000 µM was -3 ± 2.8%.
As to `CNc1nc(-c2ccc(NC(C)=O)cc2)cs1` [S3], the inhibition at 1000 µM in assay [1] was -6.4 ± 2%.
For `COc1nc(-c2ccc(NC(C)=O)cc2)cs1` [S4], in assay [1], the “inhibition of FLhPIF1 helicase activity” value is listed as “only minimal activity” and the inhibition at 1000 µM worked out at 9.6 ± 2.8%.
Turning to `Cc1cccc(-c2csc(N)n2)c1` [S7], the inhibition at 1000 µM in assay [1] was -8.1 ± 1.9%.
For the molecule `Cc1ccc(-c2csc(N)n2)cc1` [S8], in assay [1], the “inhibition of FLhPIF1 helicase activity” value is on record as “incapable of inhibiting FLhPIF1 helicase activity effectively” and the inhibition at 1000 µM amounted to 43.9 ± 5.7%.
Regarding `N#Cc1cccc(-c2csc(N)n2)c1` [S9], the inhibition at 1000 µM in assay [1] was -12.6 ± 4.6%.
Take `Nc1nc(-c2cccc(OC(F)(F)F)c2)cs1` [S10]: in assay [1], the inhibition at 1000 µM is 59.5 ± 1.7%.
Take `Nc1nc(-c2ccc(OC(F)(F)F)cc2)cs1` [S11]: the inhibition at 1000 µM in assay [1] was found to be 58.3 ± 9.1%.
The same measure, in the same setting: in the case of `COC(=O)c1cccc(-c2csc(N)n2)c1` [S12] it was -11 ± 1%; in that of `CCCNC(=O)c1cccc(-c2csc(N)n2)c1` [S13], 0.2 ± 1.4%.
Same read-out and setting: the value for `CCN(CC)C(=O)c1ccc(-c2csc(N)n2)cc1` [S14] was -4.6 ± 2.8%; that for `CNC(=O)c1ccc(-c2csc(N)n2)cc1` [S15] was 37.9 ± 4.3%.
On the same count and under the same terms, in the case of `CCOc1ccc(-c2csc(N)n2)cc1` [S16] it was 25.9 ± 3.2%; in that of `Nc1nc(-c2ccc(Oc3ccccc3)cc2)cs1` [S17], 61.7 ± 8.2%.
For `Nc1nc(-c2ccc(-c3ccccc3)cc2)cs1` [S18], in assay [1], the “inhibition of FLhPIF1 helicase activity” value is reported as “incapable of inhibiting FLhPIF1 helicase activity effectively” and the inhibition at 1000 µM is -6.7 ± 7.3%.
Turning to `CS(=O)(=O)c1ccc(-c2csc(N)n2)cc1` [S19], the inhibition at 1000 µM in assay [1] was 46.6 ± 15.5%.
Same read-out and setting: in the case of `COC(=O)Cc1ccc(-c2csc(N)n2)cc1` [S20] it was 35.9 ± 9.9%; in that of `Nc1nc(-c2ccc(S(N)(=O)=O)cc2)cs1` [S21], -17.3 ± 4.2%; in that of `CC(=O)Nc1ccc(-c2csc(N)n2)cc1C(C)=O` [S24], 10.4 ± 3.3%.
With `CC(=O)Nc1ccc(-c2csc(N)n2)cc1C(C)O` (centres unmarked) [S25], the inhibition at 1000 µM in assay [1] turned out to be 42.5 ± 13.5%.
On the same count and under the same terms, the value for `CCN(CC)c1cc(-c2csc(N)n2)ccc1NC(C)=O` [S47] was 24.6 ± 8.9%.
Same read-out and setting: the value for `CC(=O)Nc1ccc(-c2csc(N)n2)cc1N1CCOCC1` [S48] was 11.5 ± 3.7%; that for `CC(=O)Nc1ccc(-c2csc(N)n2)cc1N1CCN(C)CC1` [S49] was 24.3 ± 5.9%.
Turning to `COc1cc(-c2csc(N)n2)ccc1NC(C)=O` [S50], the inhibition at 1000 µM in assay [1] was determined as 22.1 ± 5%.
The same measure, in the same setting: in the case of `CC(=O)Nc1ccc(-c2csc(N)n2)cc1OC1CCCC1` [S51] it was 50 ± 4.2%.
`CC(=O)Nc1ccc(-c2csc(N)n2)cc1-c1cccnc1` [S55]: in assay [1], the “inhibition of FLhPIF1 helicase activity” value is recorded as “did not display any inhibitory activity at all” and the inhibition at 1000 µM is -17.3 ± 5%.
Consider `CC(=O)Nc1ccc(-c2csc(N)n2)cc1-c1cnn(C)c1` [S56], for which, in assay [1], the “inhibition of FLhPIF1 helicase activity” value is recorded as “did not display any inhibitory activity at all” and the inhibition at 1000 µM is -16.9 ± 4.5%.
